Measurements from patent US20200115353A1, “NEW COMPOUNDS INHIBITORS OF THE YAP/TAZ-TEAD INTERACTION AND THEIR USE IN THE TREATMENT OF MALIGNANT MESOTHELIOMA” (INVENTIVA, priority 2017, published 2020).

Legend:
[1] = biological target: T1, YAP-TEAD interaction (full length human TEAD1-Gal4 fusion, full length YAP mutant S127A, S397A) (UniProt P04386+P28347); assay: Cell-based TEAD-GAL4 transactivation assay (luciferase reporter, HEK293); details: HEK293 cells, compounds 0.1 μM to 30 μM, 24 h, concentration that inhibited the luciferase activity by 50%
T1 construct: The TEAD1 construct was prepared by cloning the full length human TEAD1 cDNA; expressed in transfected cells; host or cells: HEK293 GripTite 293 MSR (Invitrogen R795-07), transiently transfected with pSG5_CMV plasmids
T1 sequence (P04386+P28347 fused, stated change not applied): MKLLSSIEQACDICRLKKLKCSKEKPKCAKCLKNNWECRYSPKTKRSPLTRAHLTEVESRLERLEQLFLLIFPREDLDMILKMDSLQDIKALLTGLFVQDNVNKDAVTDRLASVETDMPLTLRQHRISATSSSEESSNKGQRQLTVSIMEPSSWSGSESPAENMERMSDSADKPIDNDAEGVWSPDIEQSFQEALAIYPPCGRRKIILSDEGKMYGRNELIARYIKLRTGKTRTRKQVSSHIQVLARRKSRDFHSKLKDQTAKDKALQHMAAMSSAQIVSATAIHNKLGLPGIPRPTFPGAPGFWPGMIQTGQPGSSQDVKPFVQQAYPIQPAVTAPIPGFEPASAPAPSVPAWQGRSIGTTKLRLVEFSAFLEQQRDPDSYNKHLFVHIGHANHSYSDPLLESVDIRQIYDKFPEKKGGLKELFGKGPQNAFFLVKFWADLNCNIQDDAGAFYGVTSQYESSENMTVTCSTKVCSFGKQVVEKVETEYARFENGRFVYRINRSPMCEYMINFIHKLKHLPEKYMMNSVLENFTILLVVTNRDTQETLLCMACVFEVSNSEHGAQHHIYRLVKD
Procedure: To identify inhibitors of YAP-TEAD interaction, a transient transactivation assays was carried out into HEK293 cell line (HEK293 GripTite™ 293 MSR (Invitrogen R795-07)) using plasmids containing the full length TEAD1 sequences, the full length YAP mutant (S127A, S397A) and a luciferase gene reporter. All expression constructs were performed into pSG5 backbone plasmid in which the SV40 promoter was replaced by the CMV promoter. The TEAD1 construct was prepared by cloning the full length human TEAD1 cDNA in fusion with the Gal4 DNA Binding Domain (AA 1-148) into pSG5_CMV to create the TEAD1(FL)_hum_pSG5Gal4_CMV. The full length YAP mutant (S127A, S397A) was also cloned into pSG_5 CMV to create the YAP(FL)_hum_pSG5_[…]. The reporter plasmid GAL4(5×RE)_[…]_pGL3-Basic contains 5 copies of the GAL4 responsive element (5′-TCGGAGGACAGTACTCC-3′) upstream of the thymidine kinase (TK) promoter (−105/+56) inserted in a pGL3-Basic vector. To evaluate the selectivity of our compounds in blocking the YAP-TEAD interaction, a counter-screening protein-protein interaction transactivation assays was also established. Briefly, two other expression plasmids, the pBD-P53 which express the P53 (AA 72-390) in fusion with Gal4 and the pAD-SV40T which express the SV40 large T antigen (AA 84-708,AgT), were created. HEK293 cells were seeded at 5×10^4 cells/well in 96 well plates (assay plates) in DMEM medium containing 4.5 g/L D-glucose, 10% high inactivated (HI) fetal bovine serum 1% Glutamax, 1% non-essential amino acid and 1% sodium pyruvate and 0.5% penicillin/streptomycin 37° C. in a humidified atmosphere of 8% CO2. After 24 h, transfections are performed using Jet-PEI as transfectant (101B-010 Polyplus Transfection), according to the instructions of the manufacturer (N/P=10) and a ratio YAP/TEAD=10 (per well: 50 ng of YAP(FL), 5 ng of TEAD(FL) and 50 ng of reporter plasmid). Six hours after cell transfection, the plates (‘assay plate’) were washed with 100 μl PBS per well and cell were treated with compounds in semi-log from 0.1 μM to 30 μM or DMSO 0.5% as control in DMEM 4.5 g/L D-Glucose without phenol red, 0.3% BSA, 1% glutamax, 1% NEAA, 1% sodium pyruvate. Twenty-four hours later, the luciferase activity was determined after addition of 100 μl of Steady Glo™ luciferase assay system (Promega E2550) according to the manufacturer's directions. Luciferase activity in cell extracts is measured by reading luminescence using the Envision device.
The cellular response was determined by fitting the concentration response curves using a 3-parameter curve fit equation and determining the concentration that inhibited the luciferase activity by 50%.

[2] = test system: NCI-H2052 mesothelioma cell line; assay: Inhibition of malignant mesothelioma tumor cell growth (EdU proliferation); format: cell-based; details: NF2 mutated cell line, 0.1-30 μM, FIG. 1
Procedure: (§1) The tumor cell growth inhibitory activity of the YAP-TEAD interaction inhibitors was evaluated in NCI-H2052 mesothelioma cell line harboring a NF2 mutation. This cell line was selected based on its mutational status and the ability of a siRNA directed against YAP, TAZ or TEAD1-4 to inhibit cell proliferation. The nuclear localization of YAP at confluence was also taken into account. Based on these observations we were able to classify several “YAP dependent cells” where YAP is clearly nuclear and in which a cell growth inhibition is observed by using siRNA (NCI-H2052, SKOV-3, ACHN, A549) and the “YAP independent cells” where YAP is preferentially located in the cytoplasm and in which no inhibition of cell growth is observed by using a siRNA (SW620, Met-5a). […] After one day growth in the starvation medium, cells were incubated with compounds. The starting concentration was 30 μM and serial dilutions in DMSO and medium were performed until 0.1 μM to achieve a final DMSO concentration of 0.5%. The cells were then allowed to grow for 3 days, and then, EdU (Invitrogen, Molecular Probe) was added in each well at a final concentration of 10 μM and the cells were returned to the incubator for additional 24 h. Starvation medium was removed and 100 μl of PFA 4% containing Hoechst dye was adding in each well to fix the cells. Plates were then incubated at rt for 15 minutes, washed twice with PBS and the cells were permeabilized by adding 100 μl per well of triton-100 containing 0.3% BSA. After 20 minutes cells were washed with PBS and the EdU detection was performed according to the instructions of the manufacturer. Image acquisition was performed using the ImageXpress Micro and analysed using the MetaXpress software (Molecular Device).
(§2) Results were expressed as a percent of inhibition (%) of the cell proliferation values obtained with 0.5% DMSO treatment alone. The cellular response was determined by fitting the concentration response curves using a 3 parameter curve fit equation and determining the concentration that inhibited cell growth between 50% and 100%.

Met5A cell line = assay: Cell proliferation in YAP-independent cell line (EdU); format: cell-based; details: FIG. 1
Procedure: as §1, §2

SMILES	IC50 [1] [µM]	NCI-H2052 mesothelioma cell proliferation [2]	effect on proliferation of Met5A cell line (Met5A cell line)	melting point [°C]
CN(/N=C/c1ccc2[nH]c(=O)n(C3CCC3)c2c1)C1=NS(=O)(=O)c2ccccc21 [Ex 28, 3-cyclobutyl-5-[(E)-[(1,1-dioxo-1,2-benzothiazol-3-yl)-methyl-hydrazono]methyl]-1H-benzimidazol-2-one]	3.06	inhibited NCI-H2052 mesothelioma cell proliferation	without showing any effect	
CN(/N=C/c1ccc2[nH]nnc2c1)C1=NS(=O)(=O)c2ccccc21 [Ex 35, N-[(E)-1H-benzotriazol-5-ylmethyleneamino]-N-methyl-1,1-dioxo-1,2-benzothiazol-3-amine]				313 to 315
CN(/N=C/c1ccc(F)c(Cl)n1)C1=NS(=O)(=O)c2ccccc21 [Ex 37, N-[(E)-(6-chloro-5-fluoro-2-pyridyl)methyleneamino]-N-methyl-1,1-dioxo-1,2-benzothiazol-3-amine]				219 to 221
COc1cc(/C=N/N(CCc2ccccc2)C2=NS(=O)(=O)c3ccccc32)ccc1F [Ex 46, N-[(E)-(4-fluoro-3-methoxy-phenyl)methyleneamino]-1,1-dioxo-N-(2-phenylethyl)-1,2-benzothiazol-3-amine]				256 to 258
COc1cc(/C=N/N(C)C2=NS(=O)(=O)c3cc(B(O)O)ccc32)ccc1F [Ex 50, [3-[[(E)-(4-fluoro-3-methoxy-phenyl)methyleneamino]-methyl-amino]-1,1-dioxo-1,2-benzothiazol-6-yl]boronic acid]	3.03	inhibited NCI-H2052 mesothelioma cell proliferation	without showing any effect	
COc1cc(/C=N/N(C)C2=NS(=O)(=O)c3cc(O)ccc32)ccc1F [Ex 51, 3-[[(E)-(4-fluoro-3-methoxy-phenyl)methyleneamino]-methyl-amino]-1,1-dioxo-1,2-benzothiazol-6-ol]				258
COCCOc1ccc2c(c1)C(N(C)/N=C/c1ccc(F)c(OC)c1)=NS2(=O)=O [Ex 56, N-[(E)-(4-fluoro-3-methoxy-phenyl)methyleneamino]-5-(2-methoxyethoxy)-N-methyl-1,1-dioxo-1,2-benzothiazol-3-amine]	2.31			200
CN(/N=C/c1cnc(N2CCC2)s1)C1=NS(=O)(=O)c2ccccc21 [Ex 61, N-[(E)-[2-(azetidin-1-yl)thiazol-5-yl]methyleneamino]-N-methyl-1,1-dioxo-1,2-benzothiazol-3-amine]				256 to 258
COc1cc(/C=N/N(C)C2=NS(=O)(=O)c3cc(B4OC(=O)CN(C)CC(=O)O4)ccc32)ccc1F [Ex 68, 2-[3-[[(E)-(4-fluoro-3-methoxy-phenyl)methyleneamino]-methyl-amino]-1,1-dioxo-1,2-benzothiazol-6-yl]-6-methyl-1,3,6,2-dioxazaborocane-4,8-dione]	4.5	inhibited NCI-H2052 mesothelioma cell proliferation	without showing any effect	
CN(/N=C/c1ccc(F)c(OC(F)(F)F)c1)C1=NS(=O)(=O)c2ccccc21 [Ex 78, N-[(E)-[4-fluoro-3-(trifluoromethoxy)phenyl]methyleneamino]-N-methyl-1,1-dioxo-1,2-benzothiazol-3-amine]				230 to 280
CCN(/N=C/c1ccc2c(c1)C(C)(C)NC2=O)C1=NS(=O)(=O)c2ccccc21 [Ex 85, 5-[(E)-[(1,1-dioxo-1,2-benzothiazol-3-yl)-ethyl-hydrazono]methyl]-3,3-dimethyl-isoindolin-1-one]				289 to 291
COc1cc(/C=N/N(CC(C)(C)CO)C2=NS(=O)(=O)c3ccccc32)ccc1F [Ex 108, 3-[(1,1-dioxo-1,2-benzothiazol-3-yl)-[(E)-(4-fluoro-3-methoxy-phenyl)methyleneamino]amino]-2,2-dimethyl-propan-1-ol]				207 to 208
Cc1ncc(/C=N/N(C)C2=NS(=O)(=O)c3ccccc32)s1 [Ex 118, N-methyl-N-[(E)-(2-methylthiazol-5-yl)methyleneamino]-1,1-dioxo-1,2-benzothiazol-3-amine]	3.97			248
